# Source: patent publication US6245968A, “Mutated hydroxyphenylpyruvate dioxygenase, DNA sequence and isolation of plants which contain such a gene and which are tolerant to herbicides” (Aventis CropScience S.A., priority 1997, dated 2001)
# Key:
# [1] = target: T1, Synechocystis PCC6803 HPPD variant SyN318 (Glycine318 replaced with asparagine) (Synechocystis sp., UniProt Q55810, G318N); test: HPPD activity by HPLC determination of homogentisate (Km, IC50); type: biochemical
# T1 construct: made in house; host or cells: E. coli, vector ptrc-99 A; crude extract (JM105 is named for the unmutated plasmid)
# Description: (§1) Glycine318, replaced with asparagine, designated SyN318, similar to PfD334 (in Example 3).
# (§2) The mutants SyN318 and SyA318 which were obtained in the previous example were examined, in comparison with the unmutated HPPD of Synechocystis, for the biochemical characteristics Km and IC50 with regard to an HPPD inhibitor, i.e. 2-cyano-3-cyclopropyl-1-(2-methylsulphonyl-4-trifluoromethylphenyl)propane-1,3-dione. This analysis was carried out using the following protocol:
# (§3) The HPPD activity is measured by determining, by means of high performance liquid chromatography (HPLC), the quantity of product, i.e. homogentisate,which is formed after incubating the enzyme with its substrate HPP. Injecting different amounts of homogentisate, varying from 12 to 48 nmoles, into the column enables the retention time of the homogentisate to be determined and the peak area to be correlated with the quantity of product injected.
# (§4) The activity measurements are carried out in a final volume of […] containing: 12.6 mM ascorbate, […] iron (FeH8N2O8S2,6H2O) (previously prepared in 0.1 M tris-acetate buffer, pH6), […] of crude extract containing the HPPD, […] HPP and 0.1 M tris-acetate buffer, pH7.5. The enzyme is firstly incubated with the iron at 30° C. for 1 min and then with the ascorbate at 30° C. for 5 min before the reaction is started by adding the substrate, i.e. the HPP. The incubation is continued at 30° C. for 1 min 30sec and the reaction is then stopped by adding […] of 20% perchloric acid. The proteins are then removed by centrifuging for 5min at 15,300 rpm and at 20° C. The supernatant is recovered. The quantity of homogentisate formed is then analysed by injecting […] of assay mixture into a Pico TagC18 column which is connected to the HPLC system. […] On leaving the column, the homogentisate is detected by measuring absorbance at 288 nm. The quantity of product formed is defined by the area of the peak on the chromatogram.
# (§5) The Km of the HPPD for HPP is determined by measuring the initial velocity of the reaction using different concentrations of HPP. […]
# [2] = tested on: Synechocystis PCC6803 HPPD variant SyN318 (Glycine318 replaced with asparagine); test: as above; type: biochemical; settings: SyN318 versus unmutated Synechocystis HPPD; 10 min
# Description: as §1, §2, §3, §4, §5
# [3] = target: T2, Synechocystis PCC6803 HPPD variant SyA318 (Glycine318 replaced with alanine) (Synechocystis sp., UniProt Q55810, G318A); test: as above; type: biochemical
# T2 construct: made in house; host or cells: E. coli, vector ptrc-99 A; crude extract (JM105 is named for the unmutated plasmid)
# Description: (§6) Glycine318, replaced with alanine, designated SyA318, similar to PfA334 (in Example 3).
# as §2, §3, §4, §5
# [4] = tested on: Synechocystis PCC6803 HPPD variant SyA318 (Glycine318 replaced with alanine); test: as above; type: biochemical; settings: SyA318 versus unmutated Synechocystis HPPD; 10 min
# Description: as §6, §2, §3, §4, §5
# [5] = tested on: Pseudomonas fluorescens A32 HPPD, wild type (unmutated, vector pRPC); test: Colorimetric screening test (browning of medium) in E. coli; type: cell-based; settings: 7 mM inhibitor
# Description: The vector pRPA (described in application WO96/38567), which contains a genomic DNA fragment and the coding region of the gene for HPPD from Pseudomonas fluorescens A32, was digested with NcoI, purified and then ligated into the expression vector pKK233-2 (Clontech), which itself was digested with NcoI, the site for which forms a unique cloning site in this vector. The orientation of the gene in the resulting pRPC vector which permitted expression under the control of the trc promoter was verified.
# A culture medium of the YT broth type, containing 1% agarose (Gibco BRL ultra pure), 5 mM L-tyrosine (Sigma) and the agent for selecting the above mentioned pRPC vector, is dispensed into a 96-well plate at the rate of […] per well. 10 microliter of a culture of E.coli in the exponential phase of growth and harbouring the pRPC vector are dispensed into each well. After 16 hours at 37° C., the wells which only contain the culture medium, or those which have been seeded with an E. coli culture harbouring the vector pKK233-2, are translucent whereas the wells which have been seeded with an E. coli culture harbouring the vector pRPC are coloured brown. […]
# [6] = tested on: Pseudomonas fluorescens A32 HPPD variant PfD334 (Glycine334 replaced by aspartic acid); test: as above; type: cell-based; settings: 7 mM inhibitor, score 0 to 10
# Description: (§7) A culture medium of the YT broth type, containing 1% agarose (Gibco BRL ultra pure), 5 mM L-tyrosine (Sigma) and the agent for selecting the above mentioned pRPC vector, is dispensed into a 96-well plate at the rate of […] per well. 10 microliter of a culture of E.coli in the exponential phase of growth and harbouring the pRPC vector are dispensed into each well. After 16 hours at 37° C., the wells which only contain the culture medium, or those which have been seeded with an E. coli culture harbouring the vector pKK233-2, are translucent whereas the wells which have been seeded with an E. coli culture harbouring the vector pRPC are coloured brown.
# (§8) A series of samples was made up with identical culture medium which contained varying concentrations (0 mM to 14 mM) of 2-cyano-3-cyclopropyl-1-(2-methylsulphonyl-4-trifluoromethylphenyl)propane-1,3-dione (EP 0496631), which was dissolved in water and brought to pH7.5. This molecule is a diketonitrile which is recognized as being an effective inhibitor of HPPD activity (Pallett, K. E. et al., 1997. Pestic. Sci. 50, 83-84).
# [7] = tested on: Pseudomonas fluorescens A32 HPPD variant PfE298 (Gly298 replaced by glutamic acid); test: as above; type: cell-based; settings: 7 mM inhibitor
# Description: as §7, §8
# [8] = tested on: Pseudomonas fluorescens A32 HPPD variant PfL215 (proline 215 replaced by leucine); test: as above; type: cell-based; settings: 7 mM inhibitor, score 0 to 10
# Description: as §7, §8
# [9] = tested on: Pseudomonas fluorescens A32 HPPD variant PfL333 (Phenylalanine333 replaced by leucine); test: as above; type: cell-based; settings: 7 mM inhibitor, score 0 to 10
# Description: as §7, §8
# [10] = tested on: Pseudomonas fluorescens A32 HPPD variant PfP334 (Glycine334 replaced by proline); test: as above; type: cell-based; settings: 7 mM inhibitor, score 0 to 10
# Description: as §7, §8
# [11] = tested on: Pseudomonas fluorescens A32 HPPD variant PfS334 (Glycine334 replaced by serine); test: as above; type: cell-based; settings: 7 mM inhibitor, score 0 to 10
# Description: as §7, §8
# [12] = tested on: Pseudomonas fluorescens A32 HPPD variant PfW334 (Glycine334 replaced by tryptophan); test: as above; type: cell-based; settings: 7 mM inhibitor, score 0 to 10
# Description: as §7, §8
# [13] = target: T3, Synechocystis PCC6803 HPPD, unmutated (Synechocystis sp., UniProt Q55810); test: as above; type: cell-based; settings: 7 mM inhibitor, 1 mM IPTG
# T3 construct: expressed in transfected cells; host or cells: E. coli JM105, vector ptrc-99 A, IPTG-induced
# T3 sequence (Q55810 1-339): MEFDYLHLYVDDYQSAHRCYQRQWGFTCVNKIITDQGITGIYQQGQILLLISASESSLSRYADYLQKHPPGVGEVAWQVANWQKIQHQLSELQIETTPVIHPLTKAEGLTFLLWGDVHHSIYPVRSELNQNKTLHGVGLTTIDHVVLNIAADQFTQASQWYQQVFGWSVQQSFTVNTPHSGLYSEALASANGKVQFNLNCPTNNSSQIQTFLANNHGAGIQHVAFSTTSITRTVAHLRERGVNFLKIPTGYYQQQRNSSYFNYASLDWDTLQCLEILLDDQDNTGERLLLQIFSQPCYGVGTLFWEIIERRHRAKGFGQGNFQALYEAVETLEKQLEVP
# Description: as §7
# The dioxygenase activity of the Synechocystis HPPD which had thus been obtained was observed by the browning of the medium, using the previously described colorimetric test, with addition of IPTG (isopropyl-b-D-thiogalactopyranoside) at a concentration of 1 mM in order to induce expression of the protein.
# [14] = target: T1, Synechocystis PCC6803 HPPD variant SyN318 (Glycine318 replaced with asparagine); test: as above; type: cell-based; settings: 7 mM inhibitor
# Description: as §7
# (§9) With several mutants at position 334 in Pseudomonas fluorescens having been obtained, two site-directed mutagenesis experiments (U.S.E., Pharmacia) were carried out using the oligonucleotides MUGLYA and MUGLYB, which oligonucleotides were intended to replace the glycine at position 318 (of Synechocystis corresponding to the glycine at position 334 of P.fluorescens) either with an asparagine or a serine or with a proline or an alanine (SEQ ID NO 18 and 19).
# (§10) One mutant from each experiment was sequenced.
# as §1
# [15] = target: T2, Synechocystis PCC6803 HPPD variant SyA318 (Glycine318 replaced with alanine); test: as above; type: cell-based; settings: 7 mM inhibitor
# Description: as §7, §9, §10, §6
# [16] = target: Synechocystis PCC6803 HPPD, native (unmutated) (Synechocystis sp., UniProt Q55810); test: HPPD activity by HPLC determination of homogentisate (Km, IC50)
# O=C(O)C(=O)Cc1ccc(O)cc1 [17] = test: as above; type: biochemical; settings: other: Km of the HPPD for HPP, crude extract, 30° C., pH7.5, pH 7.5
# Description: as §6, §2, §3, §4, §5
# O=C(O)C(=O)Cc1ccc(O)cc1 [18] = test: as above; type: biochemical; settings: other: Km of the HPPD for HPP, crude extract, 30° C., pH7.5, pH 7.5; remark: listed apart in the source
# Description: as §1, §2, §3, §4, §5
# O=C(O)C(=O)Cc1ccc(O)cc1 [19] = test: cells, lysate or membranes named; settings: other: Km of the HPPD for HPP, crude extract, 30° C., pH7.5, pH 7.5
compound,measurement,setting,value
"CS(=O)(=O)c1cc(C(F)(F)F)ccc1C(=O)C(C#N)C(=O)C1CC1 (stereo not drawn) [2-cyano-3-cyclopropyl-1-(2-methylsulphonyl-4-trifluoromethylphenyl)propane-1,3-dione]",IC50,[1],80 µM
same,ratio of the IC50 of a mutant HPPD to the IC50 of the non-mutant HPPD,[2],1000
same,IC50,[3],40 µM
same,ratio of the IC50 of a mutant HPPD to the IC50 of the non-mutant HPPD,[4],500
same,colour of the bacterial culture in the colorimetric test,"[5]; dissolved in water, pH7.5",totally without colour
same,Activity in the screening test using a selective agent dose of 7 mM,[5]; score 0 to 10,0
same,Activity in the screening test using a selective agent dose of 7 mM,[6],1
same,colour of the screening medium,[7],turn brown
same,Activity in the screening test using a selective agent dose of 7 mM,[7]; score 0 to 10,3
same,Activity in the screening test using a selective agent dose of 7 mM,[8],7
same,Activity in the screening test using a selective agent dose of 7 mM,[9],4
same,Activity in the screening test using a selective agent dose of 7 mM,[10],5
same,Activity in the screening test using a selective agent dose of 7 mM,[11],7
same,Activity in the screening test using a selective agent dose of 7 mM,[12],6
same,browning of the medium in the colorimetric test,[13],no browning of the medium
same,browning of the screening medium,[14],caused browning of the screening medium
same,browning of the screening medium,[15],caused browning of the screening medium
same,IC50,[16],0.08 µM
Synechocystis PCC6803 HPPD variant SyA318 (Glycine318 replaced with alanine) (Synechocystis sp. PCC 6803 substr. Kazusa; G318A),Km,O=C(O)C(=O)Cc1ccc(O)cc1 [17],320 µM
Synechocystis PCC6803 HPPD variant SyN318 (Glycine318 replaced with asparagine) (Synechocystis sp. PCC 6803 substr. Kazusa; G318N),Km,O=C(O)C(=O)Cc1ccc(O)cc1 [18],470 µM
"Synechocystis PCC6803 HPPD, native (unmutated) (Synechocystis sp. PCC 6803 substr. Kazusa)",Km,O=C(O)C(=O)Cc1ccc(O)cc1 [19],60 µM
